Among the data in a melting point compilation (Tetko et al.; mined from patent text by program, amines drawn as free bases though some values may be those of a salt) are melting point values, retold here.

Bounds are passed on as bounds.

A word on the melting point: it is the temperature, or range, at which the solid turns liquid. On to `Cc1nccn1-c1nc(-c2ccc(Cl)cc2)c(CCCOc2ccccc2O)o1`, for which the melting point lay in the range of 110 to 111 °C.
Turning to `CCC(=O)c1cc(CC)c(O)cc1O`, the melting point lay in the range of 74 to 75 °C.
Molecule `NS(=O)(=O)c1cc2c(c(Cl)c1Cl)OC(CCl)C2` (stereo unspecified) had a melting point of 195 to 196 °C.
With `CCCCC(F)c1cc(=O)[nH]cn1` (stereo unspecified) the figure was 148 °C; with `COc1cc(-c2ncn(CCO)c2-c2ccc(C(F)(F)F)cc2)cc(OC)c1OC`, 208 to 210 °C.
The same measure for `Cc1ncc(C#N)c(Cl)c1I`: 120 to 122 °C.
With `CC(=O)OCc1ccc(CC(C)NCC(O)c2ccccc2)cc1` (stereo unspecified) the figure was 78 to 82 °C; with `COc1c(Cl)ccnc1CSc1nc2cc(OC(F)F)ccc2[nH]1`, 94 to 99 °C.
`CCC(SC(C)=O)C(=O)NC(C)=O` (stereo unspecified) showed a melting point of 59 to 60 °C.
`CC(C)(C)OC(=O)N1CCN(C(=O)c2cc3ccccc3[nH]2)CC1` returned a melting point of 213 to 214 °C.
With `CCn1c(=O)c2[nH]c(/C=C/c3ccc(O)cc3)nc2n(CC)c1=O` the figure was above 270 °C.
Regarding `CCOCc1nc2c(N)nc3cc(-c4ccccc4)ccc3c2n1CC(C)(C)O`, the melting point was in the range of 211 to 212 °C.
In turn, `Cc1ncc(CN2CC=C(CCc3ccccc3)CC2)c(N)n1` yielded a melting point of 152 to 154 °C.
For the molecule `COC(=NS(=O)(=O)c1ccccc1Cl)Nc1nc(C)nc(OC)n1`, the melting point lay in the range of 156 to 157 °C.
`Clc1cccc(CC[C@H]2CNCCN2)c1`: the melting point fell in the range of 93 to 97 °C.
The same measure for `CC(C)(C)NC(=S)Nc1cc(Cl)cc(Cl)c1`: 164 to 165 °C.
Molecule `C(=CCN(c1ccccc1)c1ccccc1)CN(c1ccccc1)c1ccccc1` registered a melting point of 105 to 107 °C.
The molecule `COc1cc(C)n2nc(SCc3ccccc3)nc2n1` came in with a melting point of 112 to 115 °C.
The same measure for `CCCc1c(OCCCOc2ccc(Sc3ccccc3CC(=O)O)cc2)ccc(C(C)=O)c1O`: 123 to 124 °C; for `CC(=O)OC1CSC(Oc2cncc(-c3cnccc3C)c2)C(OC(C)=O)C1OC(C)=O` (stereo unspecified): 165 °C; for `CC1CC(=O)NN=C1c1ccc(NCC(C)(C)N)cc1` (stereo unspecified): 184 to 185 °C.
Molecule `CN1CCN(c2ccc(Nc3ncc4c(n3)SC(=Cc3ccc(OCc5ccccc5)cc3)C(=O)N4)cc2)CC1` gave a melting point of 238 to 240 °C.
In turn, `Cc1nc(-c2ccc(Cl)cc2)sc1C(N)=O` had a melting point of 236 to 237 °C.
Turning to `CC(C)(C)OC(=O)N(C(=O)OC(C)(C)C)c1c(C#N)csc1C(=O)O`, the melting point is 159 to 160 °C.
As to `COc1cc2c(cc1OC)C1Cc3cc(OC)c(OC(C)=O)cc3CN1CC2` (stereo unspecified), the melting point was 162 to 164 °C.
In turn, `C=CCOc1ccc2c(c1CC=C)NC(=O)CC2` displayed a melting point of 119 to 121 °C.
With `CC(=O)ONC(=O)N1CCC(=Cc2cc(C(C)(C)C)c(O)c(C(C)(C)C)c2)C1=O` the figure was 165 to 166 °C; with `Cc1cc(Oc2ccc(C(F)(F)F)cc2Cl)cc(C)c1N`, 104 to 105 °C; with `COC(=O)c1cc(-n2cnn(Cc3ccc(F)cc3)c2=O)nn1Cc1ccc(OC)cc1`, 139 to 140 °C.
`CCOC(=O)C1=C(C)Nc2ccnc(OC(C)C)c2C1c1cccc(C(F)(F)F)c1Cl` (stereo unspecified): the melting point lay within 173 to 175 °C.
`O=C1c2ccc(-c3ccccc3)cc2CC1Br` (stereo unspecified) displayed a melting point of 99 to 100 °C.
The same measure for `Cc1cc(C)c(N2c3ccccc3Sc3ccccc32)c(C)c1`: 192 to 200 °C; for `CC(C)[C@@H]1C[C@@H]([C@H](CC2CCCCC2)NC(=O)OC(C)(C)C)OC1=O`: 114 to 116 °C.
With `CCOC(=O)Nc1csc2cc(OC)ccc12` the figure was 88 °C.
With `COC(=O)C1=C(O)c2sc(C(F)(F)F)cc2S(=O)(=O)N1C` the figure was 178 to 180 °C; with `COc1cc2c(cc1OC)Sc1ccc(Cl)cc1C(Cl)C2` (stereo unspecified), 139 to 141 °C.
